The values below come from patent US10533010B2, “Substituted indole Mcl-1 inhibitors” (Vanderbilt University, priority 2014, dated 2020).

Like-named read-outs stand apart in the source and are kept apart here.

The assay addresses recombinant Mcl-1 (residues 172-327) (Homo sapiens (Human), UniProt Q07820). The experiment in a line: Fluorescence polarization anisotropy competition assay (FITC-Bak or FITC-Bim BH3 peptide) with Mcl-1. Type of assay: binding. The conditions noted are these: Table 2, FITC-Bak or FITC-Bim peptide competition, Ki converted from IC50, read-out: Ki for Inhibition of Mcl-1. A general note: In fluorescence polarisation assays a small probe gives low polarisation when free and higher when bound to something large.

Sequence of recombinant Mcl-1 (residues 172-327) (Q07820 172-327): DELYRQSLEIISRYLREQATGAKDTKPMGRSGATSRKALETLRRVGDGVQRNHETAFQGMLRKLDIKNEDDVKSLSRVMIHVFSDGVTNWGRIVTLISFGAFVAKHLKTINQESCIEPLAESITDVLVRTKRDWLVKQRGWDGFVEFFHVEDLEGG

Regarding `Cc1cc(OCCCc2c3n(c4c(-c5c(C)nn(C)c5C)c(Cl)ccc24)CCCN(Cc2cc(C(=O)O)cc(N(C(=O)CC(C)C)C(=O)CC(C)C)c2)C3=O)cc(C)c1Cl` [I-329, 3-((8-chloro-11-(3-(4-chloro-3,5-dimethylphenoxy)propyl)-1-oxo-7-(1,3,5-trimethyl-1H-pyrazol-4-yl)-4,5-dihydro-1H-[1,4]diazepino[1,2-a]indol-2(3H)-yl)methyl)-5-(3-methyl-N-(3-methylbutanoyl)butanamido)benzoic acid], under “Ki bins given in nM”, the Ki (in general, the dissociation constant of the complex between target and ligand, obtained from inhibition or displacement) is under 50 nM.

Turning to `Cc1cc(OCCCc2c(C(=O)N(C)c3cccc(C(=O)O)c3)[nH]c3c(-c4c(C)nn(C)c4C)c(Cl)ccc23)cc(C)c1Cl` [I-187, 3-(6-chloro-3-(3-(4-chloro-3,5-dimethylphenoxy)propyl)-N-methyl-7-(1,3,5-trimethyl-1H-pyrazol-4-yl)-1H-indole-2-carboxamido)benzoic acid], the inhibition constant Ki (Ki bins given in nM) was under 50 nM.

For `Cc1cc(OCCCc2c(C(=O)Nc3cc[nH]n3)[nH]c3c(-c4c(C)nn(C)c4C)cccc23)cc(C)c1Cl` [I-313, 3-(3-(4-chloro-3,5-dimethylphenoxy)propyl)-N-(1H-pyrazol-3-yl)-7-(1,3,5-trimethyl-1H-pyrazol-4-yl)-1H-indole-2-carboxamide], the Ki (Ki bins given in nM) fell in the range of 501 to 999 nM.

In the case of `Cc1cc(OCCCc2c(C(=O)NCCS(=O)(=O)NC(=O)C34CC5CC(CC(C5)C3)C4)[nH]c3ccccc23)cc(C)c1Cl` [I-55, N-(2-(N-((3r,5r,7r)-adamantane-1-carbonyl)sulfamoyl)ethyl)-3-(3-(4-chloro-3,5-dimethylphenoxy)propyl)-1H-indole-2-carboxamide], for the setting “Ki bins given in nM”, the Ki lay in the range of 301 to 500 nM.

In the case of `COC(=O)c1cccc(N2CCN(C(=O)c3[nH]c4cc(Cl)ccc4c3CCCOc3cc(C)c(Cl)c(C)c3)CC2)c1` [I-52, methyl 3-(4-(6-chloro-3-(3-(4-chloro-3,5-dimethylphenoxy)propyl)-1H-indole-2-carbonyl)piperazin-1-yl)benzoate], the Ki (Ki bins given in nM) lay within 501 to 999 nM.

Turning to `Cc1cc(OCCCc2c(C(=O)N(C)c3cccc(C(=O)O)c3)[nH]c3c(-c4c(C)nn(C)c4C)cccc23)cc(C)c1Cl` [I-197, 3-(3-(3-(4-chloro-3,5-dimethylphenoxy)propyl)-N-methyl-7-(1,3,5-trimethyl-1H-pyrazol-4-yl)-1H-indole-2-carboxamido)benzoic acid], the Ki (Ki bins given in nM) was under 50 nM.

Turning to `Cc1cc(OCCCc2c(C(=O)N3CCc4c(C(=O)O)cccc43)[nH]c3c(-c4c(C)nn(C)c4C)cccc23)cc(C)c1Cl` [I-202, 1-(3-(3-(4-chloro-3,5-dimethylphenoxy)propyl)-7-(1,3,5-trimethyl-1H-pyrazol-4-yl)-1H-indole-2-carbonyl)indoline-4-carboxylic acid], the Ki (Ki bins given in nM) lay within 51 to 100 nM.

Turning to `Cc1cc(OCCCc2c3n(c4c(-c5c(C)nn(C)c5C)c(Cl)ccc24)CCCN(c2ccnc4c(C(=O)O)cccc24)C3=O)cc(C)c1Cl` [I-104, 4-(8-chloro-11-(3-(4-chloro-3,5-dimethylphenoxy)propyl)-1-oxo-7-(1,3,5-trimethyl-1H-pyrazol-4-yl)-4,5-dihydro-1H-[1,4]diazepino[1,2-a]indol-2(3H)-yl)quinoline-8-carboxylic acid], the Ki (Ki bins given in nM) is under 50 nM.

In the case of `Cc1cc(CNC(=O)c2[nH]c3c(-c4c(C)nn(C)c4C)cccc3c2CCCOc2cc(C)c(Cl)c(C)c2)cc(OC(F)(F)F)c1` [I-265, 3-(3-(4-chloro-3,5-dimethylphenoxy)propyl)-N-(3-methyl-5-(trifluoromethoxy)benzyl)-7-(1,3,5-trimethyl-1H-pyrazol-4-yl)-1H-indole-2-carboxamide], the inhibition constant (Ki) (Ki bins given in μM) was in the range of 1000 to 9990 nM.

Turning to `Cc1cc(OCCCc2c3n(c4c(-c5c(C)nn(C)c5C)c(Cl)ccc24)CCCN(c2cc(C(=O)O)c4cc[nH]c4c2)C3=O)cc(C)c1Cl` [I-253, 6-(8-chloro-11-(3-(4-chloro-3,5-dimethylphenoxy)propyl)-1-oxo-7-(1,3,5-trimethyl-1H-pyrazol-4-yl)-4,5-dihydro-1H-[1,4]diazepino[1,2-a]indol-2(3H)-yl)-1H-indole-4-carboxylic acid], the Ki (Ki bins given in nM) is under 50 nM.

As for `Cc1cc(OCCCc2c3n(c4c(-c5c(C)nn(C)c5C)c(Cl)ccc24)CCCN(c2cc(C(=O)O)cc4c2c(Cl)cn4C)C3=O)cc(C)c1Cl` [I-255, 3-chloro-4-(8-chloro-11-(3-(4-chloro-3,5-dimethylphenoxy)propyl)-1-oxo-7-(1,3,5-trimethyl-1H-pyrazol-4-yl)-4,5-dihydro-1H-[1,4]diazepino[1,2-a]indol-2(3H)-yl)-1-methyl-1H-indole-6-carboxylic acid], the Ki (Ki bins given in nM) was under 50 nM.

As for `Cc1cc(OCCCc2c3n(c4c(-c5c(C)nn(C)c5C)c(Cl)ccc24)CCCN(c2cc(C(=O)O)cc4c2c(Br)cn4C)C3=O)cc(C)c1Cl` [I-256, 3-bromo-4-(8-chloro-11-(3-(4-chloro-3,5-dimethylphenoxy)propyl)-1-oxo-7-(1,3,5-trimethyl-1H-pyrazol-4-yl)-4,5-dihydro-1H-[1,4]diazepino[1,2-a]indol-2(3H)-yl)-1-methyl-1H-indole-6-carboxylic acid], the Ki (Ki bins given in nM) was under 50 nM.

For the compound `Cc1cc(OCCCc2c3n(c4c(-c5c(C)nn(C)c5C)c(Cl)ccc24)C(C)CN(Cc2ccc(C(=O)O)o2)C3=O)cc(C)c1Cl` (stereo not drawn) [I-128, 5-((7-chloro-10-(3-(4-chloro-3,5-dimethylphenoxy)propyl)-4-methyl-1-oxo-6-(1,3,5-trimethyl-1H-pyrazol-4-yl)-3,4-dihydropyrazino[1,2-a]indol-2(1H)-yl)methyl)furan-2-carboxylic acid], the Ki (Ki bins given in nM) is under 50 nM.

Turning to `Cc1cc(OCCCc2c3n(c4c(-c5c(C)nn(C)c5C)cccc24)CCCN(Cc2ccc(C(=O)O)cc2)C3=O)cc(C)c1Cl` [I-83, 4-((11-(3-(4-chloro-3,5-dimethylphenoxy)propyl)-1-oxo-7-(1,3,5-trimethyl-1H-pyrazol-4-yl)-4,5-dihydro-1H-[1,4]diazepino[1,2-a]indol-2(3H)-yl)methyl)benzoic acid], the Ki (Ki bins given in nM) is under 50 nM.

On to `Cc1cc(OCCCc2c3n(c4c(-c5c(C)nn(C)c5C)c(Cl)ccc24)CCCN(c2cc(C(=O)O)cc(Cl)n2)C3=O)cc(C)c1Cl` [I-230, 2-chloro-6-(8-chloro-11-(3-(4-chloro-3,5-dimethylphenoxy)propyl)-1-oxo-7-(1,3,5-trimethyl-1H-pyrazol-4-yl)-4,5-dihydro-1H-[1,4]diazepino[1,2-a]indol-2(3H)-yl)isonicotinic acid], for which the Ki (Ki bins given in nM) was under 50 nM.

Consider `CCOC(=O)c1ccc(CNC(=O)c2[nH]c3c(-c4c(C)n[nH]c4C)cccc3c2CCCOc2cc(C)c(Cl)c(C)c2)o1` [I-61, ethyl 5-((3-(3-(4-chloro-3,5-dimethylphenoxy)propyl)-7-(3,5-dimethyl-1H-pyrazol-4-yl)-1H-indole-2-carboxamido)methyl)furan-2-carboxylate], for which the Ki (Ki bins given in μM) was 10000 to 50000 nM.

With `Cc1nn(C)c(C)c1-c1cccc2c(CCCOc3cccc4ccccc34)c(C(=O)Nc3cncc(C(=O)O)c3)[nH]c12` [I-194, 5-(3-(3-(naphthalen-1-yloxy)propyl)-7-(1,3,5-trimethyl-1H-pyrazol-4-yl)-1H-indole-2-carboxamido)nicotinic acid], the inhibition constant (Ki) (Ki bins given in nM) was in the range of 51 to 100 nM.

Regarding `Cc1cc(OCCCc2c(C(=O)NCCC(=O)NS(=O)(=O)c3ccc(Oc4ccccc4)cc3)[nH]c3ccccc23)cc(C)c1Cl` [I-17, 3-(3-(4-chloro-3,5-dimethylphenoxy)propyl)-N-(3-oxo-3-((4-phenoxyphenyl)sulfonamido)propyl)-1H-indole-2-carboxamide], the inhibitory constant (Ki) (Ki bins given in nM) was 101 to 299 nM.

For `Cc1cc(OCCCc2c(C(=O)NC3CCN(C(=O)c4cccc(Oc5ccccc5)c4)CC3)[nH]c3ccccc23)cc(C)c1Cl` [I-67, 3-(3-(4-chloro-3,5-dimethylphenoxy)propyl)-N-(1-(3-phenoxybenzoyl)piperidin-4-yl)-1H-indole-2-carboxamide], the Ki (Ki bins given in nM) lay within 501 to 999 nM.

Regarding `Cc1cc(OCCCc2c3n(c4c(-c5c(C)nn(C)c5C)c(Cl)ccc24)CCCN(c2cc(C(=O)O)cc4c2c(C=O)cn4C)C3=O)cc(C)c1Cl` [I-254, 4-(8-chloro-11-(3-(4-chloro-3,5-dimethylphenoxy)propyl)-1-oxo-7-(1,3,5-trimethyl-1H-pyrazol-4-yl)-4,5-dihydro-1H-[1,4]diazepino[1,2-a]indol-2(3H)-yl)-3-formyl-1-methyl-1H-indole-6-carboxylic acid], under “Ki bins given in nM”, the Ki was under 50 nM.

As for `Cc1cc(OCCCc2c3n(c4c(-c5c(C)nn(C)c5C)cccc24)CCCN(Cc2ccc(N4CCCCC4)c(C(=O)O)c2)C3=O)cc(C)c1Cl` [I-81, 5-((11-(3-(4-chloro-3,5-dimethylphenoxy)propyl)-1-oxo-7-(1,3,5-trimethyl-1H-pyrazol-4-yl)-4,5-dihydro-1H-[1,4]diazepino[1,2-a]indol-2(3H)-yl)methyl)-2-(piperidin-1-yl)benzoic acid], for the setting “Ki bins given in nM”, the Ki was 51 to 100 nM.

Take `Cc1cc(OCCCc2c3n(c4c(-c5c(C)nn(C)c5C)c(Cl)ccc24)CCCN(c2cc(CN4CCOCC4)cc(C(=O)O)c2)C3=O)cc(C)c1Cl` [I-227, 3-(8-chloro-11-(3-(4-chloro-3,5-dimethylphenoxy)propyl)-1-oxo-7-(1,3,5-trimethyl-1H-pyrazol-4-yl)-4,5-dihydro-1H-[1,4]diazepino[1,2-a]indol-2(3H)-yl)-5-(morpholinomethyl)benzoic acid]: the Ki (Ki bins given in nM) is under 50 nM.

Take `Cc1cc(OCCCc2c3n(c4c(-c5c(C)nn(C)c5C)c(Cl)ccc24)CCCN(c2cc(C(=O)O)cc(N(C)CCN(C)C)c2)C3=O)cc(C)c1Cl` [I-211, 3-(8-chloro-11-(3-(4-chloro-3,5-dimethylphenoxy)propyl)-1-oxo-7-(1,3,5-trimethyl-1H-pyrazol-4-yl)-4,5-dihydro-1H-[1,4]diazepino[1,2-a]indol-2(3H)-yl)-5-((2-(dimethylamino)ethyl)(methyl)amino)benzoic acid]: for the setting “Ki bins given in nM”, the inhibitory constant (Ki) was under 50 nM.

With `Cc1cc(OCCCc2c3n(c4c(-c5c(C)nn(C)c5C)c(Cl)ccc24)CCCN(c2cc(C(=O)O)c4ccn(CCN(C)C)c4c2)C3=O)cc(C)c1Cl` [I-243, 6-(8-chloro-11-(3-(4-chloro-3,5-dimethylphenoxy)propyl)-1-oxo-7-(1,3,5-trimethyl-1H-pyrazol-4-yl)-4,5-dihydro-1H-[1,4]diazepino[1,2-a]indol-2(3H)-yl)-1-(2-(dimethylamino)ethyl)-1H-indole-4-carboxylic acid], the Ki (Ki bins given in nM) is under 50 nM.
